Laboratory results as given in patent US11299474B2, “Crystal form targeting CDK4/6 kinase inhibitor” (XUANZHU BIOPHARMACEUTICAL CO., LTD., priority 2018, dated 2022).
Entries after “also recorded” stand apart in the source; their conditions may differ. Blank lines part the entries; values can stand above or below the molecule they belong to.

Assays:
Type in all cases: physicochemical
[1] = Compressibility experiment (tablet hardness vs tablet thickness); conditions: for Maximum tablet hardness: as tablet thickness decreases (tableting force increases)
Description: The change of tablet hardness with tablet thickness was investigated, and compressibility was compared.

[2] = Particle size measurement (laser particle size analyzer); conditions: water dispersant, Tween 80
Experimental: An appropriate amount of the test product was taken, 0.1 mL of a 1% Tween 80 solution was added to reduce the surface tension, and water was used as a dispersant to prepare a uniformly dispersed suspension. The same was placed in a sample dispersion device, the stirring speed was adjusted to 2000 rpm, ultrasonication was carried out for 2 min at an ultrasonic frequency of 7 KHz, and measurement was carried out.

Hygroscopicity test = conditions: Chinese Pharmacopoeia 2015, 9103
Description: Measurement method: Measured according to Chinese Pharmacopoeia, 2015 edition, Volume IV, General Principles, 9103 Guiding Principles for Hygroscopicity Test on Drugs.

Tablet disintegration = conditions: 40 mg tablet with adjuvants
Description: (§1) The disintegration and dissolution was investigated under the following conditions.
(§2) Dissolution Method: Paddle method (Chinese Pharmacopoeia, 2015 edition, Volume IV, 0931 Dissolution and Release Measurement methods, Method II); medium: 0.2% SDS aqueous solution; and rotation speed: 50 r/min.

[3] = Stability test (appearance, related substances, XRPD) under high humidity, 60° C. and light
Experimental: Experiment Method: The test product was placed under high humidity (25° C./RH 92.5% or 40° C./RH 75%) conditions or under 60° C. conditions for 10 days, and samples were taken on the 5th and 10th days, respectively; and placed under light (4500 LX±500 LX) conditions for 10 days, a sample was taken on the 10th day and tested for related substances and XRPD, and the same was compared with the sample of day 0.
Relevant substances: Measured according to Chinese Pharmacopoeia, 2015 edition, Volume II, Appendix V D High Performance Liquid Chromatography.
XRPD measurement: Measured according to Chinese Pharmacopoeia, 2015 edition, Volume IV, 0451 X-Ray Diffraction Method.
The test product was placed under 25° C./RH 92.5% or under 60° C. conditions for 10 days, and was sampled on the 5th and 10th days respectively; the test product was placed under light (4500 LX±500 LX) or 40° C./RH 75% conditions for 10 days, sampled on the 10th day and tested for related substances and XRPD, and compared with the sample of day 0.
Related substances: Measured according to Chinese Pharmacopoeia, 2015 edition, Volume II, Appendix V D High Performance Liquid Chromatography.
XRPD Measurement: Chinese Pharmacopoeia, 2015 edition, Volume IV, 0451 X-Ray Diffraction Method.

[4] = Tablet dissolution, paddle method; conditions: 0.2% SDS aqueous solution, 50 r/min
Description: as §1, §2

- Hardness of tablet ([1]; Tablet thickness 0.9 mm, "/" means no tablet can be formed at that thickness): 2.97 kg
- Hardness of tablet ([1]; Tablet thickness 1.3 mm, "/" means no tablet can be formed at that thickness): 3.50 kg
- Hardness of tablet ([1]; Tablet thickness 1.8 mm): 5.40 kg
- Hardness of tablet ([1]; Tablet thickness 2.0 mm): 1.76 kg
- Hardness of tablet ([1]; Tablet thickness 2.4 mm): 0 kg
- Maximum tablet hardness [1]: about 5.4 kg
- Particle size distribution, 10% of the sample [2]: ≤ 2.501 μm
- Particle size distribution, 50% of the sample [2]: ≤ 10.432 μm
- Particle size distribution, 90% of the sample [2]: ≤ 59.852 μm
- Hygroscopicity results (Hygroscopicity test): No or almost no moisture
- Moisture absorption weight gain (%) (Hygroscopicity test): 0.003%
- Disintegration time (Tablet disintegration): 4 min
- Appearance ([3]; 0 day): Off-white
- Related substance (%) ([3]; 0 day): 0.11%
- XRPD (solid form found) ([3]; 0 day): Crystal form A
- Appearance ([3]; 25° C./RH 92.5% Open, 5 day): Off-white
- Related substance (%) ([3]; 25° C./RH 92.5% Open, 5 day): 0.09%
- XRPD (solid form found) ([3]; 25° C./RH 92.5% Open, 5 day): Crystal form A
- Appearance ([3]; 25° C./RH 92.5% Open, 10 day): Off-white
- Related substance (%) ([3]; 25° C./RH 92.5% Open, 10 day): 0.09%
- XRPD (solid form found) ([3]; 25° C./RH 92.5% Open, 10 day): Crystal form A
- Appearance ([3]; 40° C./RH 75% Closed, 5 day): Off-white
- Related substance (%) ([3]; 40° C./RH 75% Closed, 5 day): 0.10%
- XRPD (solid form found) ([3]; 40° C./RH 75% Closed, 5 day): Crystal form A
- Appearance ([3]; 40° C./RH 75% Closed, 10 day): Off-white
- Related substance (%) ([3]; 40° C./RH 75% Closed, 10 day): 0.20%
- XRPD (solid form found) ([3]; 40° C./RH 75% Closed, 10 day): Crystal form A
- Appearance ([3]; 40° C./RH 75% Open, 5 day): Off-white
- Related substance (%) ([3]; 40° C./RH 75% Open, 5 day): 0.10%
- XRPD (solid form found) ([3]; 40° C./RH 75% Open, 5 day): Crystal form A
- Appearance ([3]; 40° C./RH 75% Open, 10 day): Off-white
- Related substance (%) ([3]; 40° C./RH 75% Open, 10 day): 0.20%
- XRPD (solid form found) ([3]; 40° C./RH 75% Open, 10 day): Crystal form A
- Appearance ([3]; 60° C. Closed, 5 day): Off-white
- Related substance (%) ([3]; 60° C. Closed, 5 day): 0.09%
- XRPD (solid form found) ([3]; 60° C. Closed, 5 day): Crystal form A
- Appearance ([3]; 60° C. Closed, 10 day): Off-white
- Related substance (%) ([3]; 60° C. Closed, 10 day): 0.11%
- XRPD (solid form found) ([3]; 60° C. Closed, 10 day): Crystal form A
- Appearance ([3]; 60° C. Open, 5 day): Off-white
- Related substance (%) ([3]; 60° C. Open, 5 day): 0.11%
- XRPD (solid form found) ([3]; 60° C. Open, 5 day): Crystal form A
- Appearance ([3]; 60° C. Open, 10 day): Off-white
- Related substance (%) ([3]; 60° C. Open, 10 day): 0.14%
- XRPD (solid form found) ([3]; 60° C. Open, 10 day): Crystal form A
- Change of properties (appearance, related substances, XRPD) ([3]; 60° C. or light conditions, 10 days): no obvious change
- Appearance ([3]; Light (4500 LX±500 LX), 10 day): Off-white
- Related substance (%) ([3]; Light (4500 LX±500 LX), 10 day): 0.09%
- XRPD (solid form found) ([3]; Light (4500 LX±500 LX), 10 day): Crystal form A
- Time to complete dissolution [4]: ≤ 60 min
- Cumulative dissolution (%) ([4]; 5 min): 69.2%
- Cumulative dissolution (%) ([4]; 10 min): 90.7%
- Cumulative dissolution (%) ([4]; 15 min): 93.8%
- Cumulative dissolution (%) ([4]; 30 min): 96.6%
- Cumulative dissolution (%) ([4]; 45 min): 97.5%
- Cumulative dissolution (%) ([4]; 60 min): 97.9%
Compound: CCN1CCN(Cc2cnc(Nc3cc(-c4cc(F)c5nc(C)n(C(C)C)c5c4)c(F)cn3)nc2)CC1 [Crystal form A of the compound of formula (I)] [5-((4-ethylpiperazin-1-yl)methyl)-N-(5-fluoro-4-(4-fluoro-1-isopropyl-2-methyl-1H-benzo[d]imidazol-6-yl)pyridin-2-yl)pyrimidin-2-amine]

- Hardness of tablet ([1]; Tablet thickness 1.8 mm, listed as amorphous form): 2.75 kg
- Hardness of tablet ([1]; Tablet thickness 2.0 mm, listed as amorphous form): 0.59 kg
- Hardness of tablet ([1]; Tablet thickness 2.4 mm, listed as amorphous form): 0.72 kg
- Maximum tablet hardness ([1]; listed as amorphous form): about 2.75 kg
- Hygroscopicity results (Hygroscopicity test): Moisture absorbability
- Moisture absorption weight gain (%) (Hygroscopicity test): 6.3%
- Disintegration behaviour (observation) (Tablet disintegration): Absorbed water
- Disintegration time (Tablet disintegration; listed as Amorphous form): >30 min
- Appearance ([3]; 0 day): Off-white
- Related substance (%) ([3]; 0 day): 0.14%
- XRPD (solid form found) ([3]; 0 day): Amorphous
- Appearance ([3]; 25° C./RH 92.5% Open, 5 day): Off-white
- Related substance (%) ([3]; 25° C./RH 92.5% Open, 5 day): 0.14%
- XRPD (solid form found) ([3]; 25° C./RH 92.5% Open, 5 day): Amorphous
- Appearance ([3]; 25° C./RH 92.5% Open, 10 day): Off-white
- Related substance (%) ([3]; 25° C./RH 92.5% Open, 10 day): 0.19%
- XRPD (solid form found) ([3]; 25° C./RH 92.5% Open, 10 day): Amorphous
- Appearance ([3]; 40° C./RH 75% Open, 10 day): Off-white
- Related substance (%) ([3]; 40° C./RH 75% Open, 10 day): 0.19%
- XRPD (solid form found) ([3]; 40° C./RH 75% Open, 10 day): Amorphous
- Appearance ([3]; 60° C. Open, 5 day): Light yellow
- Related substance (%) ([3]; 60° C. Open, 5 day): 0.67%
- XRPD (solid form found) ([3]; 60° C. Open, 5 day): Amorphous
- Appearance ([3]; 60° C. Open, 10 day): Light yellow
- Related substance (%) ([3]; 60° C. Open, 10 day): 1.15%
- XRPD (solid form found) ([3]; 60° C. Open, 10 day): Amorphous
- Appearance ([3]; Light (4500 LX±500 LX), 10 day): Light yellow
- Related substance (%) ([3]; Light (4500 LX±500 LX), 10 day): 10.54%
- XRPD (solid form found) ([3]; Light (4500 LX±500 LX), 10 day): Amorphous
- Related substance (%) ([3]; Light (4500 LX±500 LX), 10 day, listed as amorphous form): up to 10.54%
- Cumulative dissolution (%) ([4]; 5 min, listed as Amorphous form): 1.0%
- Cumulative dissolution (%) ([4]; 10 min, listed as Amorphous form): 2.7%
- Cumulative dissolution (%) ([4]; 15 min, listed as Amorphous form): 4.6%
- Cumulative dissolution (%) ([4]; 30 min, listed as Amorphous form): 9.2%
- Cumulative dissolution (%) ([4]; 45 min, listed as Amorphous form): 13.2%
- Cumulative dissolution (%) ([4]; 60 min, listed as Amorphous form): 18.5%
Compound: CCN1CCN(Cc2cnc(Nc3cc(-c4cc(F)c5nc(C)n(C(C)C)c5c4)c(F)cn3)nc2)CC1 [Compound of formula (I), 5-((4-ethylpiperazin-1-yl)methyl)-N-(5-fluoro-4-(4-fluoro-1-isopropyl-2-methyl-1H-benzo[d]imidazol-6-yl)pyridin-2-yl)pyrimidin-2-amine]
- Behaviour during tabletting (observation) ([1]; during the process of tabletting, listed as amorphous form): prone to wall sticking; also recorded: prone to capping
